Assay results reported in US20250298000A1, “PREPARATION OF CULTURE MEDIUM AND USE THEREFOR IN WATER TOXICITY CO[…]” (CHANGCHUN INSTITUTE OF APPLIED CHEMISTRY, CHINESE ACADEMY …, priority 2022, published 2025).

Test system: Bacillus subtilis
Experiment: Colorimetric detection of water toxicity with Bacillus subtilis cultured in CM-Fe medium and potassium ferricyanide (Prussian blue, absorbance at 690 nm, 96-well plate)
Type: cell-based
Settings: bacterial suspension OD600=2, 8 mM potassium ferricyanide, 20 min reaction; for detection limit (toxicant concentration discerned with naked eyes by color difference): sample photographs
Protocol: The inhibition rate is specifically calculated as: Inhibition %=(1−Abstox/Abscon)×100(1); • wherein, Abstox represents the peak value of the ultraviolet absorption spectrum of the sample to be detected at 690 nm, and Abscon represents the peak value of the ultraviolet absorption spectrum of the standard sample at 690 nm; • the IC50 value is calculated by: taking a concentration of toxicant in the water to be detected as the abscissa and the inhibition rate as the ordinate, drawing a curve, and fitting to obtain the IC50 value.
20 g of glucose, 15 g of peptone, 5 g of NaCl, 0.5 g of yeast extract and 0.001-10 g of ferric citrate were weighed, mixed and ground into powder by a dry grinding method in a ball mill to obtain a new culture medium CM-Fe.
1-100 g of CM and 1-100 g of CM-Fe culture media were added into two 1 L beakers respectively, adjusted to a volume of 1 L by adding deionized water, stirred, ultrasonicated, dissolved, and aliquoted in six 500 mL triangular flasks (3 for each culture medium), which were sealed with a sterile filtration sealing film, sterilized with high-temperature and high-pressure at 121° C. (98 kPa) for 5-40 min, and cooled down for later use.
Bacillus subtilis was inoculated into sterilized CM and CM-Fe culture media respectively, and cultured in a constant temperature shaker at 50-300 rpm at 37° C. for 8-30 h. The cultured bacterial liquid was centrifuged at 3000-10000 rpm for 1-20 min, then centrifuged and washed twice with 0.1-30% NaCl solution to remove the culture medium. Finally, Bacillus subtilis was resuspended in 0.1-30% NaCl solution and placed at 0-30° C. for later use.
100 μL of two suspensions of bacteria with OD600=2, 50 μL of Cu^2+ at varying concentrations and 50 μL of 8 mM potassium ferricyanide were mixed in the wells of a 96-well plate and reacted for 20 min. […] At low Cu^2+, concentrations, the color of the toxic samples was similar to that of the non-toxic samples. […] The final concentrations of toxicants from top to bottom were 0 mg/L, 0.49 mg/L, 0.98 mg/L, 1.95 mg/L, 3.9 mg/L, 7.8 mg/L and 15.63 mg/L, respectively. […]

Row | Compound | IC20 fitted from inhibition rate curve (peak at 690 nm) [mg/L] | detection limit (toxicant concentration discerned with naked eyes by color difference) [mg/L]
1 | [Cu+2] [Cu^2+] | 2.4 | 3.9
2 | [Hg+2] [Hg^2+] |  | 0.49
